Results from patent US7435820B2, “Substituted tetrahydro-1H-pyrazolo [3,4-c]pyridines compositions comprising them, and use” (Aventis Pharma S.A., priority 2003, dated 2008).
Like-named read-outs stand apart in the source and are kept apart here.

How the values were obtained:
human Tie2 = biological target: T1, human Tie2 (Homo sapiens, UniProt Q02763); assay: Tie2 kinase inhibition: phosphorylation of GST-PLC (SH2-SH3 fragments) by GST-Tie2, 33P-ATP flashplate; assay type: biochemical
T1 construct: human Tie2 corresponding to amino acids 776-1124 of the intracellular domain was generated by PCR; made in house; host or cells: baculovirus expression system (vector pFastBacGT)
Experimental: The coding sequence of human Tie2 corresponding to amino acids 776-1124 of the intracellular domain was generated by PCR using the cDNA isolated from human placenta as model. This sequence was introduced into a baculovirus expression vector pFastBacGT in the form of a GST fusion protein.
The inhibitory effect of the molecules is determined in an assay for phosphorylation of PLC by Tie2 in the presence of GST-Tie2 purified to approximately 80% homogeneity. The substrate is made up of the SH2-SH3 fragments of PLC, the latter being expressed in the form of a GST fusion protein.
The kinase activity of Tie2 is measured in a 20 mM MOPS buffer, pH 7.2, containing 10 mM MgCl2, 10 mM MnCl2, 1 mM DTT and 10 mM of glycerophosphate. A reaction mixture made up of 70 μl of kinase buffer containing 100 ng of GST-Tie2 enzyme per well is placed in a flashplate 96-well plate kept on ice. 10 μl of the molecule to be tested, diluted in DMSO, at a concentration of at most 10% are then added. For a given concentration, each measurement is carried out in quadruplicate. The reaction is initiated by adding 20 μl of solution containing 2 μg of GST-PLC, 2 μM of cold ATP and 1 μCi of ^33P[ATP]. After incubation for 1 hour at 37° C., the reaction is stopped by adding 1 volume (100 μl) of 200 mM EDTA. After removal of the incubation buffer, the wells are washed three times with 300 μl of PBS. The radioactivity is measured on a Wallac MicroBeta 1450.
The inhibition of the Tie2 activity is calculated and expressed as percentage inhibition with respect to the control activity determined in the absence of compound.

human KDR enzyme = biological target: T2, human KDR enzyme (Homo sapiens, UniProt P35968); assay: KDR kinase inhibition: phosphorylation of PLCγ SH2-SH3 substrate by KDR enzyme, 33P-ATP scintillation plate; assay type: biochemical
T2 construct: The cytoplasmic domain of the human KDR enzyme was cloned in GST fusion form; GST; made in house; host or cells: SF21 insect cells (baculovirus, pFastBac)
Experimental: The inhibitory effect of the compounds is determined in an assay for phosphorylation of substrate by the KDR enzyme in vitro using a scintillation technique (96-well plate, NEN).
The cytoplasmic domain of the human KDR enzyme was cloned in GST fusion form into the baculovirus expression vector pFastBac. The protein was expressed in SF21 cells and purified to approximately 60% homogeneity. The KDR kinase activity is measured in 20 mM MOPS, 10 mM MgCl2, 10 mM MnCl2, 1 mM DTT, 2.5 mM EGTA, 10 mM b-glycerophosphate, pH=7.2, in the presence of 10 mM MgCl2, 100 μM Na3VO4 and 1 mM NaF. 10 μl of the compound are added to 70 μl of kinase buffer containing 100 ng of KDR enzyme at 4° C. The reaction is initiated by adding 20 μl of solution containing 2 μg of substrate (SH2-SH3 fragment of PLCγ expressed in the form of an GST fusion protein), 2 μCi γ ^33P[ATP] and 2 μM cold ATP. After incubation for 1 hour at 37° C., the reaction is stopped by adding 1 volume (100 μl) of 200 mM EDTA. The incubation buffer is removed and the wells are washed three times with 300 μl of PBS. The radioactivity is measured in each well using a Top Count NXT (Packard) radioactivity counter.
The background noise is determined by measuring the radioactivity in four different wells containing the radioactive ATP and the substrate alone.
A total activity control is measured in four different wells containing all the reagents (γ^33P-[ATP], KDR and PLC-γ substrate) but in the absence of compound.
The inhibition of the KDR activity with the compound of the invention is expressed as percentage inhibition of the control activity determined in the absence of compound.
The compound SU5614 (Calbiochem) (1 μM) is included in each plate as inhibition control.

[1] = Assay 1, read-out: Tie2 % Inhib at 10 μM (FRX) Assay 1
[2] = Assay 2, read-out: Tie2 % Inhib at 10 μM (FRX) Assay 2
[3] = Assay 1, read-out: KDR % Inhib at 10 μM Assay 1
[4] = Assay 2, read-out: KDR % Inhib at 10 μM Assay 2

T1 sequence (Q02763 776-1124): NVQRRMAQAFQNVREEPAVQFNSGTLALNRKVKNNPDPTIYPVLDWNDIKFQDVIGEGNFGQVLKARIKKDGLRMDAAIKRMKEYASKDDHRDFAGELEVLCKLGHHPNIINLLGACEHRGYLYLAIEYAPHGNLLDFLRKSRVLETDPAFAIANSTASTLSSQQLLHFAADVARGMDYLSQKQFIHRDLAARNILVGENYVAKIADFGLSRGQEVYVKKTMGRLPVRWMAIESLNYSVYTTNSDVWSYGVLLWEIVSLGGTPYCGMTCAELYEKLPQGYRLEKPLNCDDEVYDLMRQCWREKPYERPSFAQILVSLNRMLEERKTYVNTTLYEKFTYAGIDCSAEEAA
T2 sequence (P35968 786-1356 limits assumed): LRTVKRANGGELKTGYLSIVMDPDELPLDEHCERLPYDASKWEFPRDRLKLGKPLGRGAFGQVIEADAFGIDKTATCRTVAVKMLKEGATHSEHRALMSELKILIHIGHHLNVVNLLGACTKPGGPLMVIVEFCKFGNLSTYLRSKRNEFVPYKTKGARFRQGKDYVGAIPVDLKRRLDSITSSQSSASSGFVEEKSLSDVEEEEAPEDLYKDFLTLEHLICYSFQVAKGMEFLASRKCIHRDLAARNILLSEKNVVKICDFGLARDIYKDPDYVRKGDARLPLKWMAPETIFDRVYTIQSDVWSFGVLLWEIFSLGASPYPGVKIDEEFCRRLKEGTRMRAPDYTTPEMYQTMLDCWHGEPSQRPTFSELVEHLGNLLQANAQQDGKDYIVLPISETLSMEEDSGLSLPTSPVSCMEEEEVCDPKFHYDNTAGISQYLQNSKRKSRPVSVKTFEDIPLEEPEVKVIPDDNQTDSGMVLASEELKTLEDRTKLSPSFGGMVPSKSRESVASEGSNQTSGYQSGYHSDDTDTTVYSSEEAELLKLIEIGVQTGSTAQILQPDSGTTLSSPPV

Row | inhibition at 10 µM (human Tie2; [1]) | inhibition at 10 µM (human Tie2; [2]) | inhibition at 10 µM (human KDR enzyme; [3]) | inhibition at 10 µM (human KDR enzyme; [4]) | SMILES
1 | 80.1% | 83.8% | 75.5% | 77.4% | Cc1cc2nc(-c3[nH]nc4c3CCN(C(=O)c3ccccc3NC(=O)c3ccc(Cl)cc3)C4)[nH]c2cc1C [Example P-31378-112-15]
2 | 88.7% | 88.3% | 90.2% | 89.1% | Cc1cc2nc(-c3[nH]nc4c3CCN(C(=O)c3ccccc3NCc3ccco3)C4)[nH]c2cc1C [Example P-31378-112-16]
